Experimental data published in article PMC5193077, “An Allosteric Potentiator of the Dopamine D1 Receptor Increases Locomotor Activity in Human D1 Knock-In Mice without Causing Stereotypy or Tachyphylaxis” (The Journal of Pharmacology and Experimental Therapeutics, 2017).
Where a name gives a salt, the structure may show the parent alone. Each block holds one molecule with its values, some of them ahead of it.

Tests used:
[1] = system: hD1 mice; assay: Locomotor activity (LMA) in hD1 mice; type: in vivo, mouse; settings: hD1 mice; for Shape of LMA dose-response curve: DETQ up to 240 mg/kg
From the text: Male hD1 mice, 8–10 weeks old (weighing 18 to 25 g at the time of the experiment), were used. Monitoring of mouse LMA took place in transparent plastic shoebox cages having dimensions of 45 × 25 × 20 cm, with a 1-cm depth of wood chips for absorbent bedding, and covered with a ventilated filtered plastic cage top.
Cages were placed in a rectangular frame containing a grid of 12 photocell beams in an 8 × 4 configuration (Kinder Scientific, Poway, CA) that were positioned 2.5 cm from the floor of the cage for the detection of body movements (ambulations), which were recorded by computer for analysis. Mice were placed inside individual LMA boxes for 1 hour during an acclimation period. Mice were then dosed with test compounds (oral or subcutaneous) and were replaced inside individual LMA boxes for the start of LMA. Photocell activity (total ambulations) was collected for 60 minutes using software from Hamilton Kinder (Poway, CA).
Calculation of data based on total ambulations was done using Excel (Microsoft, Redmond, WA). Graphing and statistical analysis of data were done using one-way analysis of variance followed by Dunnett’s multiple comparison test using GraphPad Prism.

[2] = molecular target: T1, human D1 receptor (Homo sapiens, UniProt P21728); assay: cAMP response in HEK293 cells stably expressing the human D1 receptor; type: cell-based; settings: with 12 nM dopamine; % of window between EC20 dopamine and maximum dopamine response
T1 sequence (P21728 whole entry): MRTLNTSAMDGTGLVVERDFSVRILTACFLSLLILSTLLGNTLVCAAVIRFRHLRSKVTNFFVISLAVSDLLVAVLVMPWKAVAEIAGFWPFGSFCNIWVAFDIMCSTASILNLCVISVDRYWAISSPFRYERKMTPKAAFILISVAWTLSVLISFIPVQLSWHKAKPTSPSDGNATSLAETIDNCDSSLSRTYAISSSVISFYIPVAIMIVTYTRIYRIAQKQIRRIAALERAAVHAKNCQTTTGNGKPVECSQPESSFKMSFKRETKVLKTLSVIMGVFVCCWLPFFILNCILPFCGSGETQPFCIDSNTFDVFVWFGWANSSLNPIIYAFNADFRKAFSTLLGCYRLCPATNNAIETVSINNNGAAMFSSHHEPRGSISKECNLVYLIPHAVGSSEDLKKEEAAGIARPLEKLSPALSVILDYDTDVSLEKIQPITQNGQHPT

[3] = molecular target: T1, human D1 receptor; assay: D1 receptor internalization (PathHunter, DiscoveRx)
[4] = system: hD1 mice; assay: Video-tracking of horizontal motion, rearing and grooming in hD1 mice; type: in vivo, mouse
From the text: The apparatus for the video-tracking assessment experiment included 12 custom-built video-tracking observation chambers and the HomeCageScan (CleverSys, Reston, VA) software system. The chambers, measuring (in inches) 8 width × 10 length × 8 height, consisted of two end walls, a back wall, a top, and a floor constructed of ¼-in. translucent white acrylic, and one side (front) constructed of clear acrylic. LED strip lighting was placed below the chamber for illumination. A color video camera (640 × 480, 30 frames per second) was placed in front of each chamber to record behavior from a side view. The chambers were located in large sound-attenuating chambers to reduce ambient room noise and isolate lighting. The cameras were connected in groups of four to a quad multiplexer (model NVQC-42N; Nuvico, Englewood, NJ), with each multiplexer connected to its own computer, which then recorded each session to an MPEG file.
At the end of the experiment the files were batch-analyzed by a computer running the CleverSys CageScan video-tracking software. This software can recognize and quantify several different behaviors, including LMA, grooming, rearing, immobility, and feeding behaviors. The current experiment examined behavior in a novel open-field environment rather than home-cage activity, which limited behaviors of interest to LMA, grooming, and rearing.
For HomeCageScan behavioral phenotyping, male D1 knock-in mice (8–12 weeks, 20–25 g body weight) were placed into the observation chambers for a 60-minute habituation session. […] All behavioral activity was monitored and scored by the HomeCageScan system.

[5] = system: hD1 and wild-type mice; assay: Seizure observation in mice; type: in vivo, mouse; settings: higher doses, unpublished observation
[6] = system: hD1 mice; assay: Locomotor activity (LMA) in hD1 mice; type: in vivo, mouse; settings: nonhabituated hD1 mice, 30 min pretreatment
[7] = with EC20 dopamine, 0% = EC20 dopamine response, 100% = maximum dopamine response

SMILES: Oc1cc2c(cc1O)[C@H]1c3ccccc3CN[C@@H]1CC2 (racemic) [dihydrexidine, reference compound]
Shape of LMA dose-response curve [1]: bell-shaped curves

Top, cAMP, potentiator mode [2]: 121.0%
Pathway Preference cAMP/Internalization ([3]; RA for cAMP divided by RA for internalization): 6.6
RA, Internalization ([3]; top divided by EC50, with 407 nM dopamine): 7.78
Bottom, D1 receptor internalization [3, 7]: −12.8%
Top, D1 receptor internalization [3, 7]: 112.0%
SMILES: Cl.NC[C@@H]1O[C@H](C23CC4CC(CC(C4)C2)C3)Cc2c1ccc(O)c2O [A-77636, (1R)-3-(1-adamantyl)-1-(aminomethyl)-3,4-dihydro-1H-isochromene-5,6-diol;hydrochloride, reference compound]
LMA response on repeated once-a-day dosing ([1]; once daily for 4 days): completely abolished by day 2
Shape of LMA dose-response curve [1]: bell-shaped curves
Horizontal locomotion and rearing [4]: increase in horizontal locomotion and rearing at lower doses

SMILES: CCCc1cc2c(s1)CN[C@@H]1CCc3cc(OC(C)=O)c(OC(C)=O)cc3[C@@H]21 [ABT-431, adrogolide hydrochloride]
Seizures [5]: induced seizures

SMILES: CN1CCc2cc(Cl)c(O)cc2[C@H]2c3ccccc3CC[C@@H]21 [SCH39166, (6aS,13bR)-11-chloro-7-methyl-5,6,6a,8,9,13b-hexahydronaphtho[1,2-a][3]benzazepin-12-ol]
Dose that lowered DETQ-stimulated activity [6]: 0.03 mg/kg
Dose that lowered basal exploratory activity [6]: 0.01 mg/kg

SMILES: C=CCN1CCc2c(cc(O)c(O)c2Cl)C(c2ccccc2)C1 (stereo not drawn) [SKF 82958, 9-chloro-5-phenyl-3-prop-2-enyl-1,2,4,5-tetrahydro-3-benzazepine-7,8-diol]
Shape of LMA dose-response curve [1]: bell-shaped curves
Grooming (index of stereotyped behavior) [4]: supplanted by grooming at higher doses
Horizontal locomotion and rearing [4]: increase in horizontal locomotion and rearing at lower doses
